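Values below derive from 48-hour exposures of cells grown in 96-well plates, with endpoints linearly interpolated between the two concentrations bracketing the appropriate inhibition level. GI50 marks 50% less growth.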 Activity calls are given as the source filed them. Cut-off read from the data, not from the text of the source: active = GI50 up to about 1.1 µM and inactive = higher.
What was measured:
Test in all cases: NCI tumour cell line growth inhibition, 48 h
[1] = tested on: U-251
[2] = tested on: MDA-N
[3] = tested on: KM12
[4] = tested on: NCI-H23
[5] = tested on: NCI/ADR-RES
[6] = tested on: MDA-MB-231
[7] = tested on: SF-268
[8] = tested on: SR
[9] = tested on: MDA-MB-435
[10] = tested on: CAKI-1
[11] = tested on: OVCAR-3
[12] = tested on: M14
[13] = tested on: HOP-62
[14] = tested on: BT-549
[15] = tested on: ACHN
[16] = tested on: SK-MEL-28
[17] = tested on: SNB-75
[18] = tested on: NCI-H522
[19] = tested on: Hs-578T

Measured: GI50

CCNC(=S)NNC(=O)c1csc(NC(=S)NC2CCCCC2)n1
inactive: [1] 9.95 µM | [2] 2.9 µM | [3] 11.1 µM | [4] 22.8 µM | [5] 14.4 µM | [6] 6.53 µM | [7] 10.8 µM | [8] 3.5 µM | [9] 4.1 µM | [10] 6.71 µM | [11] 3.25 µM | [12] 11.6 µM | [13] 10.6 µM | [14] 15.2 µM | [15] 7 µM

CC(C)(C)OC(=O)[C@H]1CCC(=S)N1Cc1ccccc1
inactive: [16] > 100 µM | [1] > 100 µM | [2] > 100 µM | [3] > 100 µM | [4] > 100 µM | [5] > 100 µM | [17] > 100 µM | [6] > 100 µM | [8] > 100 µM | [9] > 100 µM | [10] > 100 µM | [11] > 100 µM | [12] > 100 µM | [18] > 100 µM | [15] > 100 µM

CCOC(=O)C1(C/C=C\CBr)CCCC1=O (stereo not drawn)
inactive: [16] 47.3 µM | [1] 20.1 µM | [3] 32.1 µM | [4] 23.8 µM | [5] 25.5 µM | [17] 27 µM | [6] 25.6 µM | [7] 32.5 µM | [9] 22.1 µM | [10] 48.8 µM | [19] 55.6 µM | [12] 21.7 µM | [18] 21.4 µM | [13] 29.1 µM | [14] 30.3 µM | [15] 20.4 µM

O=C1CC(O)c2c(Cl)sc(Cl)c21 (stereo not drawn)
inactive: [16] 6.46 µM | [1] 13.9 µM | [2] 9.33 µM | [3] 3.9 µM | [4] 15.3 µM | [5] 22.9 µM | [17] 14.4 µM | [6] 27.7 µM | [7] 3.66 µM | [8] 2.71 µM | [9] 8.02 µM | [10] 3.3 µM | [11] 5.4 µM | [12] 14.2 µM | [13] 14.1 µM | [14] 16 µM | [15] 12.2 µM

CCOC(=O)c1c(N2CCCC2)nsc1Nc1ccccc1
inactive: [16] > 100 µM | [2] > 100 µM | [3] > 100 µM | [4] > 100 µM | [5] > 100 µM | [17] > 100 µM | [6] > 100 µM | [7] > 100 µM | [8] > 100 µM | [10] > 100 µM | [19] 60 µM | [12] > 100 µM | [15] > 100 µM

Brc1ccc2nc(-c3cccs3)nc(N3CCN(c4ccccc4)CC3)c2c1
inactive: [16] > 100 µM | [1] > 100 µM | [3] > 100 µM | [4] > 100 µM | [5] > 100 µM | [17] > 100 µM | [6] > 100 µM | [7] > 100 µM | [8] > 100 µM | [9] > 100 µM | [10] > 100 µM | [11] > 100 µM | [19] > 100 µM | [12] > 100 µM | [18] > 100 µM | [13] > 100 µM | [14] > 100 µM | [15] > 100 µM

N=C(N)N1CCC(N2CCOCC2)CC1
inactive: [16] > 100 µM | [1] > 100 µM | [3] > 100 µM | [4] > 100 µM | [5] > 100 µM | [17] > 100 µM | [6] > 100 µM | [7] > 100 µM | [8] > 100 µM | [9] > 100 µM | [19] > 100 µM | [12] > 100 µM | [13] > 100 µM | [15] > 100 µM

Source: ChEMBL document CHEMBL1201862, “PubChem BioAssay data set” (2004)
